Measurements published in a compilation of properties of binary mixtures (doi:10.1016/j.molliq.2012.02.019).

Assay: xn = mol fraction of the nth substance listed
Conditions: 101 kPa

**Q.** With `COC(=O)OC` + CCCCCCCC[N+](C)(CCCCCCCC)CCCCCCCC.[Cl-] as the molecule, how does the electrical conductivity (303.15 K, x1 = 1) read?
**A.** 0.0001 S/m

**Q.** What about the viscosity (303.15 K, x1 = 1) of the same molecule?
**A.** 0.55 mPa·s

**Q.** And the viscosity (308.15 K, x1 = 1)?
**A.** 0.49 mPa·s

**Q.** Which electrical conductivity (298.15 K, x1 = 0.002) does the source give for `CCCCCCCC[N+](C)(CCCCCCCC)CCCCCCCC.[Cl-]` + COC(=O)OC here?
**A.** 0.0001 S/m

**Q.** And the electrical conductivity (298.15 K, x1 = 0.011)?
**A.** 0.0006 S/m

**Q.** What about the electrical conductivity (298.15 K, x1 = 0.015) of the same molecule?
**A.** 0.0009 S/m

**Q.** And the electrical conductivity (298.15 K, x2 = 0.35)?
**A.** 0.0047 S/m

**Q.** And the viscosity (298.15 K, x2 = 0.35)?
**A.** 530 mPa·s

**Q.** What about the electrical conductivity (298.15 K, x2 = 0.55) of the same molecule?
**A.** 0.0098 S/m

**Q.** What about the viscosity (298.15 K, x2 = 0.55) of the same molecule?
**A.** 158 mPa·s

**Q.** And the electrical conductivity (298.15 K, x2 = 0.76)?
**A.** 0.0211 S/m

**Q.** And the viscosity (298.15 K, x2 = 0.76)?
**A.** 22.51 mPa·s

**Q.** And the electrical conductivity (298.15 K, x2 = 0.83)?
**A.** 0.0235 S/m

**Q.** What about the viscosity (298.15 K, x2 = 0.83) of the same molecule?
**A.** 10.27 mPa·s

**Q.** What about the electrical conductivity (298.15 K, x2 = 0.92) of the same molecule?
**A.** 0.0171 S/m

**Q.** What about the viscosity (298.15 K, x2 = 0.92) of the same molecule?
**A.** 2.52 mPa·s

**Q.** And the electrical conductivity (298.15 K, x2 = 0.95)?
**A.** 0.0076 S/m

**Q.** And the viscosity (298.15 K, x2 = 0.95)?
**A.** 1.41 mPa·s

**Q.** What about the electrical conductivity (298.15 K, x2 = 0.98) of the same molecule?
**A.** 0.0012 S/m

**Q.** What about the viscosity (298.15 K, x2 = 0.98) of the same molecule?
**A.** 0.79 mPa·s

**Q.** And the electrical conductivity (303.15 K, x1 = 0.006)?
**A.** 0.0003 S/m

**Q.** What about the electrical conductivity (303.15 K, x1 = 0.011) of the same molecule?
**A.** 0.0008 S/m

**Q.** What about the electrical conductivity (303.15 K, x2 = 0) of the same molecule?
**A.** 0.0035 S/m

**Q.** And the viscosity (303.15 K, x2 = 0)?
**A.** 1602 mPa·s

**Q.** What about the electrical conductivity (303.15 K, x2 = 0.35) of the same molecule?
**A.** 0.0064 S/m

**Q.** What about the viscosity (303.15 K, x2 = 0.35) of the same molecule?
**A.** 400 mPa·s

**Q.** What about the electrical conductivity (303.15 K, x2 = 0.67) of the same molecule?
**A.** 0.019 S/m

**Q.** And the viscosity (303.15 K, x2 = 0.67)?
**A.** 47.1 mPa·s

**Q.** What about the electrical conductivity (303.15 K, x2 = 0.76) of the same molecule?
**A.** 0.0259 S/m

**Q.** What about the viscosity (303.15 K, x2 = 0.76) of the same molecule?
**A.** 18.86 mPa·s

**Q.** What about the electrical conductivity (303.15 K, x2 = 0.83) of the same molecule?
**A.** 0.0287 S/m

**Q.** And the viscosity (303.15 K, x2 = 0.83)?
**A.** 8.87 mPa·s

**Q.** And the electrical conductivity (303.15 K, x2 = 0.88)?
**A.** 0.031 S/m

**Q.** And the viscosity (303.15 K, x2 = 0.88)?
**A.** 4.56 mPa·s

**Q.** What about the electrical conductivity (303.15 K, x2 = 0.92) of the same molecule?
**A.** 0.0204 S/m

**Q.** What about the viscosity (303.15 K, x2 = 0.92) of the same molecule?
**A.** 2.27 mPa·s

**Q.** And the electrical conductivity (303.15 K, x2 = 0.95)?
**A.** 0.0094 S/m

**Q.** What about the viscosity (303.15 K, x2 = 0.95) of the same molecule?
**A.** 1.3 mPa·s

**Q.** What about the electrical conductivity (303.15 K, x2 = 0.98) of the same molecule?
**A.** 0.0016 S/m

**Q.** What about the viscosity (303.15 K, x2 = 0.98) of the same molecule?
**A.** 0.75 mPa·s

**Q.** And the electrical conductivity (308.15 K, x1 = 0.002)?
**A.** 0.0002 S/m

**Q.** What about the electrical conductivity (308.15 K, x1 = 0.006) of the same molecule?
**A.** 0.0004 S/m

**Q.** And the electrical conductivity (308.15 K, x1 = 0.011)?
**A.** 0.0009 S/m

**Q.** What about the electrical conductivity (308.15 K, x1 = 0.015) of the same molecule?
**A.** 0.0013 S/m

**Q.** What about the electrical conductivity (308.15 K, x2 = 0) of the same molecule?
**A.** 0.0049 S/m

**Q.** And the viscosity (308.15 K, x2 = 0)?
**A.** 1067 mPa·s

**Q.** What about the electrical conductivity (308.15 K, x2 = 0.35) of the same molecule?
**A.** 0.0084 S/m

**Q.** What about the viscosity (308.15 K, x2 = 0.35) of the same molecule?
**A.** 304 mPa·s

**Q.** And the electrical conductivity (308.15 K, x2 = 0.55)?
**A.** 0.016 S/m

**Q.** What about the viscosity (308.15 K, x2 = 0.55) of the same molecule?
**A.** 98 mPa·s

**Q.** What about the electrical conductivity (308.15 K, x2 = 0.67) of the same molecule?
**A.** 0.0236 S/m

**Q.** What about the viscosity (308.15 K, x2 = 0.67) of the same molecule?
**A.** 38.66 mPa·s

**Q.** And the electrical conductivity (308.15 K, x2 = 0.83)?
**A.** 0.0345 S/m

**Q.** What about the viscosity (308.15 K, x2 = 0.83) of the same molecule?
**A.** 7.71 mPa·s

**Q.** And the electrical conductivity (308.15 K, x2 = 0.88)?
**A.** 0.037 S/m

**Q.** And the viscosity (308.15 K, x2 = 0.88)?
**A.** 4.11 mPa·s

**Q.** What about the electrical conductivity (308.15 K, x2 = 0.92) of the same molecule?
**A.** 0.0246 S/m

**Q.** What about the viscosity (308.15 K, x2 = 0.92) of the same molecule?
**A.** 2.07 mPa·s

**Q.** And the electrical conductivity (313.15 K, x1 = 0.002)?
**A.** 0.0003 S/m

**Q.** And the electrical conductivity (313.15 K, x1 = 0.011)?
**A.** 0.001 S/m

**Q.** What about the electrical conductivity (313.15 K, x1 = 0.015) of the same molecule?
**A.** 0.0014 S/m

**Q.** And the electrical conductivity (313.15 K, x2 = 0)?
**A.** 0.0066 S/m

**Q.** What about the viscosity (313.15 K, x2 = 0) of the same molecule?
**A.** 770 mPa·s

**Q.** What about the electrical conductivity (313.15 K, x2 = 0.35) of the same molecule?
**A.** 0.0108 S/m

**Q.** What about the viscosity (313.15 K, x2 = 0.35) of the same molecule?
**A.** 238 mPa·s

**Q.** What about the electrical conductivity (313.15 K, x2 = 0.67) of the same molecule?
**A.** 0.0287 S/m

**Q.** And the viscosity (313.15 K, x2 = 0.67)?
**A.** 32.21 mPa·s

**Q.** What about the electrical conductivity (313.15 K, x2 = 0.76) of the same molecule?
**A.** 0.038 S/m

**Q.** What about the viscosity (313.15 K, x2 = 0.76) of the same molecule?
**A.** 13.72 mPa·s

**Q.** And the electrical conductivity (313.15 K, x2 = 0.83)?
**A.** 0.041 S/m

**Q.** And the viscosity (313.15 K, x2 = 0.83)?
**A.** 6.91 mPa·s

**Q.** And the electrical conductivity (313.15 K, x2 = 0.88)?
**A.** 0.0438 S/m

**Q.** And the viscosity (313.15 K, x2 = 0.88)?
**A.** 3.7 mPa·s

**Q.** What about the electrical conductivity (313.15 K, x2 = 0.95) of the same molecule?
**A.** 0.014 S/m

**Q.** And the viscosity (313.15 K, x2 = 0.95)?
**A.** 1.13 mPa·s

**Q.** And the electrical conductivity (318.15 K, x1 = 0.002)?
**A.** 0.0004 S/m

**Q.** What about the electrical conductivity (318.15 K, x1 = 0.006) of the same molecule?
**A.** 0.0006 S/m

**Q.** And the electrical conductivity (318.15 K, x1 = 0.011)?
**A.** 0.0012 S/m

**Q.** What about the electrical conductivity (318.15 K, x1 = 0.015) of the same molecule?
**A.** 0.0015 S/m

**Q.** And the electrical conductivity (318.15 K, x2 = 0)?
**A.** 0.0087 S/m

**Q.** And the viscosity (318.15 K, x2 = 0)?
**A.** 570 mPa·s

**Q.** What about the electrical conductivity (318.15 K, x2 = 0.35) of the same molecule?
**A.** 0.0138 S/m

**Q.** What about the viscosity (318.15 K, x2 = 0.35) of the same molecule?
**A.** 200 mPa·s

**Q.** What about the electrical conductivity (318.15 K, x2 = 0.55) of the same molecule?
**A.** 0.0249 S/m

**Q.** And the viscosity (318.15 K, x2 = 0.55)?
**A.** 65.2 mPa·s

**Q.** What about the electrical conductivity (318.15 K, x2 = 0.67) of the same molecule?
**A.** 0.0347 S/m

**Q.** And the viscosity (318.15 K, x2 = 0.67)?
**A.** 27.29 mPa·s

**Q.** And the electrical conductivity (318.15 K, x2 = 0.76)?
**A.** 0.0452 S/m

**Q.** What about the viscosity (318.15 K, x2 = 0.76) of the same molecule?
**A.** 11.84 mPa·s

**Q.** What about the electrical conductivity (318.15 K, x2 = 0.83) of the same molecule?
**A.** 0.0482 S/m

**Q.** What about the viscosity (318.15 K, x2 = 0.83) of the same molecule?
**A.** 6.15 mPa·s

**Q.** What about the electrical conductivity (318.15 K, x2 = 0.88) of the same molecule?
**A.** 0.0513 S/m

**Q.** And the viscosity (318.15 K, x2 = 0.88)?
**A.** 3.36 mPa·s

**Q.** What about the electrical conductivity (318.15 K, x2 = 0.92) of the same molecule?
**A.** 0.0342 S/m

**Q.** What about the viscosity (318.15 K, x2 = 0.92) of the same molecule?
**A.** 1.75 mPa·s

**Q.** What about the electrical conductivity (318.15 K, x2 = 0.95) of the same molecule?
**A.** 0.0167 S/m

**Q.** What about the viscosity (318.15 K, x2 = 0.95) of the same molecule?
**A.** 1.06 mPa·s

**Q.** And the electrical conductivity (318.15 K, x2 = 0.98)?
**A.** 0.002 S/m

**Q.** What about the viscosity (318.15 K, x2 = 0.98) of the same molecule?
**A.** 0.64 mPa·s
